Experimental data from US12441703B2, “Carboxamides as modulators of sodium channels” (VERTEX PHARMACEUTICALS INCORPORATED, priority 2019, dated 2025).
pIC50: −log10 of the molar value.

target: human NaV 1.8 (Homo sapiens, UniProt Q9Y5Y9); assay: E-VIPR assay for detecting and measuring NaV inhibition properties; type: cell-based; settings: E-VIPR assay conducted in the presence of human serum; HEK cells expressing truncated human NaV 1.8; read-out: IC50
From the text: Sodium ion channels are voltage-dependent proteins that can be activated by inducing membrane voltage changes by applying electric fields. The electrical stimulation instrument and methods of use, referred to as E-VIPR, are described in International Publication No. WO 2002/008748 A3 and C.-J. Huang et al. Characterization of voltage-gated sodium channel blockers by electrical stimulation and fluorescence detection of membrane potential, 24 Nature Biotech. 439-46 (2006), both of which are incorporated by reference in their entirety. The instrument comprises a microtiter plate handler, an optical system for exciting the coumarin dye while simultaneously recording the coumarin and oxonol emissions, a waveform generator, a current- or voltage-controlled amplifier, and parallel electrode pairs that are inserted into assay plate wells. Under integrated computer control, this instrument passes user-programmed electrical stimulus protocols to cells within the wells of the microtiter plate.
16-20 hours prior to running the assay on E-VIPR, HEK cells expressing a truncated form of human NaV 1.8 with full channel activity were seeded into microtiter 384-well plates, pre-coated with matrigel, at a density of 25,000 cells per well. 2.5-5% KIR2.1 Bacmam virus was added to the final cell suspension before seeding into cell plates. HEK cells were grown in Dulbecco's Modified Eagle's Medium (DMEM) supplemented with 10% FBS (Fetal Bovine Serum, qualified; Sigma #F4135), 1% NEAA (Non-Essential Amino Acids, Gibco #11140), 1% HEPES (Gibco #15630), 1% Pen-Strep (Penicillin-Streptomycin; Gibco #15140) and 5 μg/ml Blasticidin (Gibco #R210-01). Cells were expanded in vented cap cell culture flasks, with 90-95% humidity and 5% CO2.
Compound Loading Buffer (2× concentration): Na/TMA Cl Bath1 Buffer containing HS (omitted in experiments run in the absence of human serum (HS)) 50%, VABSC-1 1 mM, BSA 0.2 mg/ml (in Bath-1), KCl 9 mM, DMSO 0.75%.
• 1) To reach the final concentration in each well, 400 nL of each compound was pre-spotted (in neat DMSO) into polypropylene compound plates at 250× desired final concentration from an intermediate stock concentration of 0.075 mM, in an 11 point dose response, 3-fold dilution, resulting in a top dose of 300 nM final concentration in the cell plate. Vehicle control (neat DMSO), and positive control (an established NaV1.8 inhibitor, 25 μM final in assay in DMSO) were added manually to the outermost columns of each plate respectively. The compound plate was backfilled with 45 μL per well of Compound Loading Buffer resulting in a 250 fold dilution of compound following a 1:1 transfer of compound into the cell plate (see Step 6). Final DMSO concentration for all wells in the assay was 0.625% (0.75% DMSO was supplemented to the Compound Loading Buffer for a final DMSO concentration of 0.625%). This assay dilution protocol was adjusted to enable a higher dose range to be tested in the presence of HS or if the final assay volume was altered. • 2) Hexyl Dye Solution was prepared. • 3) Cell plates were prepared. On the day of the assay, the media was aspirated, and the cells were washed three times with 80 μL of Bath-1 buffer, maintaining 25 μL residual volume in each well. • 4) 25 μL per well of Hexyl Dye Solution was dispensed into the cell plates. The cells were incubated for 20 minutes at room temperature or ambient conditions in darkness. • 5) 45 μL per well of Compound Loading Buffer was dispensed into compound plates. • 6) The cell plates were washed three times with 80 μL per well of Bath-1 Buffer, leaving 25 µL of residual volume. Then 25 μL per well from compound plate was transferred to each cell plate. The mixture was incubated for 30 minutes at room temperature/ambient conditions. • 7) The cell plate containing compound was read on E-VIPR using the current-controlled amplifier to deliver stimulation wave pulses using a symmetrical biphasic waveform. […]

human NaV 1.8, sequence (Q9Y5Y9 whole entry, looked up, the tested form may be a part): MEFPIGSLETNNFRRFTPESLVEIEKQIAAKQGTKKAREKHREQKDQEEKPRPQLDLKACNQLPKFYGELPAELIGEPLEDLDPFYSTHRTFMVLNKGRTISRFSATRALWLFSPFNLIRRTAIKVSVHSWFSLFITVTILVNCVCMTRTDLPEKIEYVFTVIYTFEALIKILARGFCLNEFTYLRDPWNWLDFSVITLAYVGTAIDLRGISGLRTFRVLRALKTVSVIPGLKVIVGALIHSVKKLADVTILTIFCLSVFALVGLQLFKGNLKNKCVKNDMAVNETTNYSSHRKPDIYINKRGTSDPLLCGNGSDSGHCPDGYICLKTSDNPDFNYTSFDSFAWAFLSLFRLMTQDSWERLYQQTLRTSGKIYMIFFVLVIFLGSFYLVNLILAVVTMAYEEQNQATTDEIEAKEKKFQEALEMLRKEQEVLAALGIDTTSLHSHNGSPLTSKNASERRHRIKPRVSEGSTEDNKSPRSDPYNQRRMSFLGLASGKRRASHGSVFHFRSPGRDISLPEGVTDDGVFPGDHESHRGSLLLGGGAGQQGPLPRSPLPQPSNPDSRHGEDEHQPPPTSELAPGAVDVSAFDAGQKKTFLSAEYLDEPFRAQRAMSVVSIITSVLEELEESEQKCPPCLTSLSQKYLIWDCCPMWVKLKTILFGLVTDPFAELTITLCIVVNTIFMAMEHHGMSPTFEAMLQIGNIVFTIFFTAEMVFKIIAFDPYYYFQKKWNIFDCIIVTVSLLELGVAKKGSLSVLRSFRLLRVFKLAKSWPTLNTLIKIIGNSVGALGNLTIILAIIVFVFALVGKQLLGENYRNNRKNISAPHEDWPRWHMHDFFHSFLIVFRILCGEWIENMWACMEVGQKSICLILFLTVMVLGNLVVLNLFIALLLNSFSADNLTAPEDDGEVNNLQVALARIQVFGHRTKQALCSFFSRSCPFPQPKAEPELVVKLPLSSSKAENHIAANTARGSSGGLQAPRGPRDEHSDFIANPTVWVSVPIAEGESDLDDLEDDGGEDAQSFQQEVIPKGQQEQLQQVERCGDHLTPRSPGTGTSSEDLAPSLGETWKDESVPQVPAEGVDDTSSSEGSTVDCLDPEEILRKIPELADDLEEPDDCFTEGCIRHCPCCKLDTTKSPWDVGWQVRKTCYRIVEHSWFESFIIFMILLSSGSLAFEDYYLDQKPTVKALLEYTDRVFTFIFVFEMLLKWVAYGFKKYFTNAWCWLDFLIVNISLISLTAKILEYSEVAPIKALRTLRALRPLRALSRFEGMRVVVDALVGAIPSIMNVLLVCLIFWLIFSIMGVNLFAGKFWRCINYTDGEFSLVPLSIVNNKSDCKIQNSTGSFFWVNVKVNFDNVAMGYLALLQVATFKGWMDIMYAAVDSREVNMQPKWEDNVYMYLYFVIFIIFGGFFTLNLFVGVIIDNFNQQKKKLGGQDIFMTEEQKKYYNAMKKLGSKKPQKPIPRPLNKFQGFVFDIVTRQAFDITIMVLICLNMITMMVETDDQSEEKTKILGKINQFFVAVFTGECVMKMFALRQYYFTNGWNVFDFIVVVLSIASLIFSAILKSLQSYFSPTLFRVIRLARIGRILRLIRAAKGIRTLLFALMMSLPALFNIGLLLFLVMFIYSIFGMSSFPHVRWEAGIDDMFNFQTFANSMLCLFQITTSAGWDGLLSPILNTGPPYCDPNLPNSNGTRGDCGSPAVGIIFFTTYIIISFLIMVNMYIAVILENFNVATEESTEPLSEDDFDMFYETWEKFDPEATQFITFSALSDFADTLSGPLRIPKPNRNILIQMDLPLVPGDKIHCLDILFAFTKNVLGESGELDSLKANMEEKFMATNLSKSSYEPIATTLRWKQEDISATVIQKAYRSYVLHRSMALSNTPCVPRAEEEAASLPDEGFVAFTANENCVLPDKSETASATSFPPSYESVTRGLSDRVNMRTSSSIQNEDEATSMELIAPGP

Compound	pIC50
4-[[2-(4-fluoro-2-methoxy-phenyl)-4-(trifluoromethyl)benzoyl]amino]pyridine-2-carboxamide [Compound 175]	< 5.52
COc1cc(OC(F)(F)F)ccc1Oc1cc(C2CCC(C(F)(F)F)CC2)ccc1C(=O)Nc1ccnc(C(N)=O)c1 (single isomer, unassigned) [158 (first diastereomer), 4-[[2-[2-methoxy-4-(trifluoromethoxy)phenoxy]-4-[4-(trifluoromethyl)cyclohexyl]benzoyl]amino]pyridine-2-carboxamide]	6.02
COc1cc(OC(F)(F)F)ccc1Oc1cc(C2CCC(C(F)(F)F)CC2)ccc1C(=O)Nc1ccnc(C(N)=O)c1 (single isomer, unassigned) [158 (second diastereomer), 4-[[2-[2-methoxy-4-(trifluoromethoxy)phenoxy]-4-[4-(trifluoromethyl)cyclohexyl]benzoyl]amino]pyridine-2-carboxamide]	6.40
COc1cc(OC(F)(F)F)ccc1Oc1cc(C2CCC(C(F)(F)F)CC2)cc(F)c1C(=O)Nc1ccnc(C(N)=O)c1 (single isomer, unassigned) [168 (first diastereomer), 4-[[2-fluoro-6-[2-methoxy-4-(trifluoromethoxy)phenoxy]-4-[4-(trifluoromethyl)cyclohexyl]benzoyl]amino]pyridine-2-carboxamide]	7.74
COc1cc(OC(F)(F)F)ccc1Oc1cc(C2CCC(C(F)(F)F)CC2)cc(F)c1C(=O)Nc1ccnc(C(N)=O)c1 (single isomer, unassigned) [168 (second diastereomer), 4-[[2-fluoro-6-[2-methoxy-4-(trifluoromethoxy)phenoxy]-4-[4-(trifluoromethyl)cyclohexyl]benzoyl]amino]pyridine-2-carboxamide]	8.00
COc1cc(OC(F)(F)F)ccc1Oc1cc(C2CCC(C(C)(C)C)CC2)cc(F)c1C(=O)Nc1ccnc(C(N)=O)c1 (single isomer, unassigned) [169 (first diastereomer), 4-[[4-(4-tert-butylcyclohexyl)-2-fluoro-6-[2-methoxy-4-(trifluoromethoxy)phenoxy]benzoyl]amino]pyridine-2-carboxamide]	7.96
COc1cc(OC(F)(F)F)ccc1Oc1cc(C2CCC(C(C)(C)C)CC2)cc(F)c1C(=O)Nc1ccnc(C(N)=O)c1 (single isomer, unassigned) [169 (second diastereomer), 4-[[4-(4-tert-butylcyclohexyl)-2-fluoro-6-[2-methoxy-4-(trifluoromethoxy)phenoxy]benzoyl]amino]pyridine-2-carboxamide]	7.68
[2H]C([2H])([2H])Oc1cc(OC(F)(F)F)ccc1Oc1cc(C2CCC(OC)CC2)cc(F)c1C(=O)Nc1ccnc(C(N)=O)c1 (single isomer, unassigned) [1017 (first diastereomer), 4-[[2-fluoro-4-(4-methoxycyclohexyl)-6-[2-(trideuteriomethoxy)-4-(trifluoromethoxy)phenoxy]benzoyl]amino]pyridine-2-carboxamide]	6.60
[2H]C([2H])([2H])Oc1cc(OC(F)(F)F)ccc1Oc1cc(C2CCC(OC)CC2)cc(F)c1C(=O)Nc1ccnc(C(N)=O)c1 (single isomer, unassigned) [1017 (second diastereomer), 4-[[2-fluoro-4-(4-methoxycyclohexyl)-6-[2-(trideuteriomethoxy)-4-(trifluoromethoxy)phenoxy]benzoyl]amino]pyridine-2-carboxamide]	7.77
COc1cc(OC(F)(F)F)ccc1Oc1cc(C2CCC(OC)CC2)ccc1C(=O)Nc1ccnc(C(N)=O)c1 (single isomer, unassigned) [1032 (first diastereomer), 4-[[4-(4-methoxycyclohexyl)-2-[2-methoxy-4-(trifluoromethoxy)phenoxy]benzoyl]amino]pyridine-2-carboxamide]	6.28
COc1cc(OC(F)(F)F)ccc1Oc1cc(C2CCC(OC)CC2)ccc1C(=O)Nc1ccnc(C(N)=O)c1 (single isomer, unassigned) [1032 (second diastereomer), 4-[[4-(4-methoxycyclohexyl)-2-[2-methoxy-4-(trifluoromethoxy)phenoxy]benzoyl]amino]pyridine-2-carboxamide]	5.81
COc1nc(Cl)ccc1Oc1ccc(C(F)(F)F)cc1C(=O)Nc1ccnc(C(N)=O)c1 [Compound 1, 4-[[2-[(6-Chloro-2-Methoxy-3-Pyridyl)Oxy]-5-(Trifluoromethyl)Benzoyl]Amino]Pyridine-2-Carboxamide]	6.41
CC(C)Oc1ccc(Oc2ccc(C(F)(F)F)cc2C(=O)Nc2ccnc(C(N)=O)c2)cc1Cl [Compound 2, 4-[[2-(3-chloro-4-isopropoxy-phenoxy)-5-(trifluoromethyl)benzoyl]amino]pyridine-2-carboxamide]	6.35
Cc1cc(Oc2ccc(C(F)(F)F)cc2C(=O)Nc2ccnc(C(N)=O)c2)ccc1F [Compound 3, 4-[[2-(4-fluoro-3-methyl-phenoxy)-5-(trifluoromethyl)benzoyl]amino]pyridine-2-carboxamide]	5.85
Cc1cc(F)ccc1Oc1ccc(C(F)(F)F)cc1C(=O)Nc1ccnc(C(N)=O)c1 [Compound 4, 4-[[2-(4-fluoro-2-methyl-phenoxy)-5-(trifluoromethyl)benzoyl]amino]pyridine-2-carboxamide]	6.19
NC(=O)c1cc(NC(=O)c2cc(C(F)(F)F)ccc2Oc2ccc(F)cc2Cl)ccn1 [Compound 5, 4-[[2-(2-chloro-4-fluoro-phenoxy)-5-(trifluoromethyl)benzoyl]amino]pyridine-2-carboxamide]	5.92
NC(=O)c1cc(NC(=O)c2cc(C(F)(F)F)ccc2Oc2ccc(F)c(F)c2)ccn1 [Compound 6, 4-[[2-(3,4-difluorophenoxy)-5-(trifluoromethyl)benzoyl]amino]pyridine-2-carboxamide]	5.77
CC(C)Oc1ccc(Oc2ccc(C(F)(F)F)cc2C(=O)Nc2ccnc(C(N)=O)c2)cc1F [Compound 7, 4-[[2-(3-fluoro-4-isopropoxy-phenoxy)-5-(trifluoromethyl)benzoyl]amino]pyridine-2-carboxamide]	6.18
COc1cc(F)ccc1Oc1ccc(C(F)(F)F)cc1C(=O)Nc1ccnc(C(N)=O)c1 [Compound 8, 4-[[2-(4-fluoro-2-methoxy-phenoxy)-5-(trifluoromethyl)benzoyl]amino]pyridine-2-carboxamide]	6.29
CC(C)Oc1ccc(Oc2ccc(C(F)(F)F)cc2C(=O)Nc2ccnc(C(N)=O)c2)cc1 [Compound 9, 4-[[2-(4-isopropoxyphenoxy)-5-(trifluoromethyl)benzoyl]amino]pyridine-2-carboxamide]	5.89
NC(=O)c1cc(NC(=O)c2cc(C(F)(F)F)ccc2Oc2ccc(F)c3c2OCC3)ccn1 [Compound 10, 4-[[2-[(4-fluoro-2,3-dihydrobenzofuran-7-yl)oxy]-5-(trifluoromethyl)benzoyl]amino]pyridine-2-carboxamide]	6.19
NC(=O)c1cc(NC(=O)c2cc(C(F)(F)F)ccc2Oc2ccc(F)c(Cl)c2)ccn1 [Compound 11, 4-[[2-(3-chloro-4-fluoro-phenoxy)-5-(trifluoromethyl)benzoyl]amino]pyridine-2-carboxamide]	5.85
COc1c(F)cccc1Oc1ccc(C(F)(F)F)cc1C(=O)Nc1ccnc(C(N)=O)c1 [Compound 12, 4-[[2-(3-fluoro-2-methoxy-phenoxy)-5-(trifluoromethyl)benzoyl]amino]pyridine-2-carboxamide]	5.68
NC(=O)c1cc(NC(=O)c2cc(C(F)(F)F)ccc2Oc2ccc(OC3CCCCC3)cc2)ccn1 [Compound 13, 4-[[2-[4-(cyclohexoxy)phenoxy]-5-(trifluoromethyl)benzoyl]amino]pyridine-2-carboxamide]	< 5.52
